Laboratory results published in the supplement of paper PMC9938120.

What was measured:
Test in all cases: drug sensitivity score (DSS3, normalised partial AUC of % inhibition dose-response) (DSS (score)); higher = more sensitive (stronger inhibition of viability); extreme values may be limits of the assay
FMOC02_2 = patient-derived low-grade serous ovarian cancer cells; conditions: 72 h; library: FO5A; assay format: 2D, 384-well, CellTiter-Glo
In short: (§1)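 On 384-well flat clear-bottom plates carrying compounds at five concentrations across a 10,000-fold range, patient-derived ovarian cancer cells below passage 10 were incubated for 72 h at 37 °C with 5% CO2. CellTiter-Glo readout of viability was processed in Breeze. A higher drug sensitivity score, defined as the partial area under the percent-inhibition dose-response curve divided by the log of the upper asymptote, means greater sensitivity.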

FMOC02_3 = patient-derived low-grade serous ovarian cancer cells; conditions: 72 h; library: FO5A; assay format: 2D, 384-well, CellTiter-Glo
In short: as §1

FMOC03 = patient-derived mucinous ovarian cancer cells; conditions: 72 h; library: FO5A; assay format: 2D, 384-well, CellTiter-Glo
In short: as §1

FMOC06 = patient-derived mucinous ovarian cancer cells; conditions: 72 h; library: FO5A; assay format: 2D, 384-well, CellTiter-Glo
In short: as §1

FMOC09 = patient-derived high-grade serous ovarian cancer cells; conditions: 72 h; library: FO5A; assay format: 2D, 384-well, CellTiter-Glo
In short: as §1

FMOC14 = patient-derived high-grade serous ovarian cancer cells; conditions: 72 h; library: FO5A; assay format: 2D, 384-well, CellTiter-Glo
In short: as §1

FMOC22 = patient-derived mucinous ovarian cancer cells; conditions: 72 h; library: FO5A; assay format: 2D, 384-well, CellTiter-Glo
In short: as §1

FMOC24 = patient-derived high-grade serous ovarian cancer cells; conditions: 72 h; library: FO5A; assay format: 2D, 384-well, CellTiter-Glo
In short: as §1

FMOC25_1 = patient-derived low-grade serous ovarian cancer cells; conditions: 72 h; library: FO4B; assay format: 2D, 384-well, CellTiter-Glo
In short: as §1

FMOC25_2 = patient-derived low-grade serous ovarian cancer cells; conditions: 72 h; library: FO5A; assay format: 2D, 384-well, CellTiter-Glo
In short: as §1

SMILES	drug sensitivity score (FMOC02_2)	drug sensitivity score (FMOC02_3)	drug sensitivity score (FMOC03)	drug sensitivity score (FMOC06)	drug sensitivity score (FMOC09)	drug sensitivity score (FMOC14)	drug sensitivity score (FMOC22)	drug sensitivity score (FMOC24)	drug sensitivity score (FMOC25_1)	drug sensitivity score (FMOC25_2)
O=C(Nc1c[nH]nc1-c1nc2ccc(CN3CCOCC3)cc2[nH]1)NC1CC1 [AT9283]	4.1	9.3	3.4	2.8	5.7	1.8	0.5	4.7	0.1	5.1
CC(=O)O[C@H]1C(=O)[C@@]2(C)[C@H]([C@H](OC(=O)c3ccccc3)[C@]3(O)C[C@H](OC(=O)[C@H](O)[C@@H](NC(=O)c4ccccc4)c4ccccc4)C(C)=C1C3(C)C)[C@]1(OC(C)=O)CO[C@@H]1C[C@@H]2O [Paclitaxel]	8.7	17	11.9	10.1	13.6	0.4	12.5	0.1	6.7	16.7
CC(C)[C@H](C(=O)Nc1ccc(C(=O)NO)cc1)c1ccccc1 [AR-42]	11	8.8	12.4	10.6	5.2	11.5	8.7	9.3	10.1	10.7
O=C(/C=C\n1cnc(-c2cc(C(F)(F)F)cc(C(F)(F)F)c2)n1)NNc1cnccn1 [Selinexor]	15.8	18.2	12.3	21.6	12.8	10.7	18.9	21.5	15.1	21.4
O=C(Nc1ccncc1)C(=O)c1cn(Cc2ccc(Cl)cc2)c2ccccc12 [Indibulin]	10.9	9.6	4.3	1.3	4.7	0	3.4	6	5.5	9.2
CO[C@H]1C[C@@H]2CC[C@@H](C)[C@@](O)(O2)C(=O)C(=O)N2CCCC[C@H]2C(=O)O[C@H]([C@H](C)C[C@@H]2CC[C@@H](OCCO)[C@H](OC)C2)CC(=O)[C@H](C)/C=C(\C)[C@@H](O)[C@@H](OC)C(=O)[C@H](C)C[C@H](C)/C=C/C=C/C=C/1C [Everolimus]	10	10.2	2.8	5.8	3.9	1.7	6.7	7.5	9.2	6.7
Cc1cnc(Nc2ccc(OCCN3CCCC3)cc2)nc1Nc1cccc(S(=O)(=O)NC(C)(C)C)c1 [Fedratinib]	10.4	12.2	3.2	2.8	5.1	1.7	2.3	6.9	5.7	11.3
CC(=O)O[C@@]12CO[C@@H]1C[C@H](O)[C@@]1(C)C(=O)[C@H](O)C3=C(C)[C@@H](OC(=O)[C@H](O)[C@@H](NC(=O)OC(C)(C)C)c4ccccc4)C[C@@](O)([C@@H](OC(=O)c4ccccc4)[C@H]21)C3(C)C [Docetaxel]	10.8	15.5	11.7	9.1	13.9	0	12.4	0.6	12.1	15.5
CC(C)Nc1cc(-c2c[nH]c(C(=O)N[C@H](CO)c3cccc(Cl)c3)c2)c(Cl)cn1 [Ulixertinib]	10.6	13.1	10	11.4	6.7	0.6	7.5	0.05	12.3	10.6
O=C(NC1CCNCC1)c1n[nH]cc1NC(=O)c1c(Cl)cccc1Cl [AT7519]	17.8	22.1	12.1	16.3	12.3	12.5	10	15.2	17.6	21.3
COc1ccccc1S(=O)(=O)Nc1ccc2c(c1)CN(C)C(=O)N2 [PFI-1]	5.3	7.1	2.9	3.6	3.2	1.2	3.6	3.2	1.1	5.7
Oc1nc(-c2ccc(C(F)(F)F)cc2)nc2c1CSCC2 [XAV-939]	8.5	6	1.7	0.5	0	2.1	0	3.55	6.9	9.9
Nc1ncn([C@@H]2O[C@H](CO)[C@@H](O)[C@H]2O)c(=O)n1 [Azacitidine]	5.7	4.7	1.8	1.3	4.1	5	3.7	14.2	3.2	3
COc1cc2c(cc1-c1c(C)noc1C)ncc1[nH]c(=O)n([C@H](C)c3ccccn3)c12 [I-BET151]	10.1	11.3	6.6	4.7	4.5	1.3	5.1	7.05	4.5	7.8
CO[C@@H]1[C@H](N(C)C(=O)c2ccccc2)C[C@H]2O[C@]1(C)n1c3ccccc3c3c4c(c5c6ccccc6n2c5c31)C(=O)NC4 [Midostaurin]	21.7	16.9	5	9.1	10.6	3	4.5	9.3	14.5	21.2
Nc1ccn([C@@H]2O[C@H](CO)[C@@H](O)[C@@H]2O)c(=O)n1 [Cytarabine]	8.3	9.3	2.3	2.4	6.9	0	6.4	0.6	3.4	6.3

SMILES	drug sensitivity score (FMOC02_2)	drug sensitivity score (FMOC02_3)	drug sensitivity score (FMOC03)	drug sensitivity score (FMOC06)	drug sensitivity score (FMOC09)	drug sensitivity score (FMOC14)	drug sensitivity score (FMOC22)	drug sensitivity score (FMOC24)	drug sensitivity score (FMOC25_1)	drug sensitivity score (FMOC25_2)
CC[C@]1(O)C[C@H]2CN(CCc3c([nH]c4ccccc34)[C@@](C(=O)OC)(c3cc4c(cc3OC)N(C=O)[C@H]3[C@@](O)(C(=O)OC)[C@H](OC(C)=O)[C@]5(CC)C=CCN6CC[C@]43[C@@H]65)C2)C1 [Vincristine]	4.7	15.4	6.2	3.4	12.5	0.3	5.9	5.05	9.4	13
CCn1c(-c2nonc2N)nc2c(C#CC(C)(C)O)ncc(OC[C@H]3CCCNC3)c21	10.3	12.5	2	4.5	2.4	2.7	1.2	1.6	4.5	8.1
CN[C@@H](C)C(=O)N[C@H]1CN(C(=O)CC(C)C)CC[C@H]2CC[C@@H](C(=O)NC(c3ccccc3)c3ccccc3)N2C1=O [AT-406]	0	0.3	1.5	8.8	0	5.4	0	24.9	1.5	5
COc1cc(N2CCC(N3CCN(C)CC3)CC2)ccc1Nc1ncnc(Nc2ccccc2S(=O)(=O)C(C)C)n1 [ASP3026]	9.8	8.1	4	4.9	7.2	0.8	4	5.1	5.2	8.6
CN(CC(=O)N(Cc1ccc(C2CCCCC2)cc1)c1ccc(C(=O)O)cc1)S(=O)(=O)c1c(F)c(F)c(F)c(F)c1F [SH-4-54]	9.3	8.8	6.2	9	10.3	5.9	5.3	6.2	6.9	5.5
CCCCc1nc2cc(/C=C/C(=O)NO)ccc2n1CCN(CC)CC [Pracinostat]	13.3	13.3	12.3	12.7	5.8	12.4	8.7	14.8	11.6	10.7
O=C(Nc1cccc(NC(=O)c2cccc(O)c2O)c1)c1cccc(O)c1O [MST-312]	2.7	7.7	6.2	5.7	9.7	8.2	10.1	5.55	4.5	2.4
CCc1c2c(nc3ccc(O)cc13)-c1cc3c(c(=O)n1C2)COC(=O)[C@]3(O)CC [SN-38]	21.3	32.5	20.2	21.8	15.1	20.4	31	24.8	24.4	29.1
COc1c(C)cnc(Cn2cnc3c(Cl)nc(N)nc32)c1C [BIIB021]	16.9	21.1	17.2	10	13.7	13.2	11.7	10.7	13	15.5
COC(=O)c1ccc2c(c1)NC(=O)/C2=C(\Nc1ccc(N(C)C(=O)CN2CCN(C)CC2)cc1)c1ccccc1 [Nintedanib]	8.3	11.7	1.8	4.5	4.6	3.3	0.6	5.85	0	2.1
C1=N/C2=N/c3ccc(OCCN4CCCC4)c(c3)COC/C=C/COCc3cccc(c3)C(=C1)N2 [Pacritinib]	10.1	15.2	6.7	7.6	5.5	5.2	6.2	7.95	7.8	15.2
CN(C)C[C@@H]1CCn2cc(c3ccccc32)C2=C(C(=O)NC2=O)c2cn(c3ccccc23)CCO1 [Ruboxistaurin]	9.7	12.8	3	8.7	7.5	6.8	3.2	6.45	5.4	9.3
COc1cccc2c1C(=O)c1c(O)c3c(c(O)c1C2=O)C[C@@](O)(C(C)=O)C[C@@H]3O[C@H]1C[C@H](N)[C@H](O)[C@H](C)O1 [Daunorubicin]	6.7	9.7	4.6	6.4	6.4	5.8	4.9	7.6	10.1	7.7
O=C(Nc1ccc2[nH]nc(-c3ccncc3)c2c1)[C@@H]1CCN(CC(=O)N2CCN(c3ccc(-c4ncccn4)cc3)CC2)C1	14.3	16.8	18.4	14.9	9.6	1.1	11.8	3.15	16.6	18
O=C(/C=C/c1cccc(S(=O)(=O)Nc2ccccc2)c1)NO [Belinostat]	12.3	10.3	13.6	11.9	6.4	16	9.9	11.4	10.8	10.5
CN(C)C1CCN(C(=O)c2ccc(NC(=O)Nc3ccc(-c4nc(N5CCOCC5)nc(N5CCOCC5)n4)cc3)cc2)CC1 [Gedatolisib]	8.2	13.3	8.2	12.4	11.3	10.2	10.7	9.05	16.3	19.9
